Calls of active or inactive are those of the source.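 The calls were made as follows: active = IC50 at or below 10 µM; inactive = IC50 above 10 µM.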

This test concerns parental CHO-K1, ATP-induced calcium, Fluo-8 fluorescence. The test is described as follows: nonselective Gq inhibitors in untransfected CHO cells – cell-based, fluorescence, dose response, artefact control for OX1R antagonist project, late-stage follow-up (AID 624408).
In general, IC50 refers to the point on the concentration scale where inhibition reaches its midpoint. In the case of `O=c1cc(CN2CC(O)Cc3ccc4ccccc4c32)nc2sccn12` (stereo unspecified), the IC50 is 55.4 µM (inactive).

Regarding `COc1cc(OC)c(-c2nc3ccccc3s2)cc1OC`, the IC50 is > 59.6 µM (inactive).

With `CC(=C/c1ccccc1)/C=C1/SC(N2CCOCC2)=NC1=O`, the IC50 was 52.1 µM (inactive).

For the compound `Cc1cccc(C=NNC(=O)c2cc3c(s2)-c2ccccc2CC3)c1`, the IC50 was > 59.6 µM (inactive).

Take `Cc1c(NS(=O)(=O)c2cccc(C(=O)OCC(=O)N(C)C3CCCCC3)c2)c(=O)n(-c2ccccc2)n1C`: the IC50 was > 59.6 µM (inactive).

`Cc1ccccc1NC(=O)C1CCCN1S(=O)(=O)c1ccccc1C(F)(F)F` (stereo unspecified): the IC50 is > 59.6 µM (inactive).

Turning to `CCc1cc2c(SCC(=O)N(CC)c3c(N)n(Cc4ccccc4)c(=O)[nH]c3=O)ncnc2s1`, the IC50 is > 59.6 µM (inactive).

Consider `Cc1noc(C)c1COc1ccc(C(=O)OCC(=O)N2CC(=O)Nc3ccccc32)cc1`, for which the IC50 is > 59.6 µM (inactive).

Turning to `COc1ccc(OC)c(S(=O)(=O)NCC(c2ccco2)N2CCc3ccccc32)c1` (stereo unspecified), the IC50 is > 59.6 µM (inactive).

In the case of `CSc1cccc(N2CC(C(=O)NCCN3C(=O)S/C(=C\c4cccnc4)C3=O)CC2=O)c1` (stereo unspecified), the IC50 is > 59.6 µM (inactive).

`CCc1cc(C(=O)OCC(=O)N2CCC(c3ccccc3)=N2)sc1C`: the IC50 was > 59.6 µM (inactive).

On to `CCn1c(SCC(=O)Nc2ccc3c(c2)c2ccccc2n3CC)nnc1-c1cnccn1`, for which the IC50 was > 59.6 µM (inactive).

For the compound `Cc1ccc(-c2csc3nnc(SCC(=O)Nc4nsc(-c5ccccc5)n4)n23)cc1`, the IC50 is > 59.6 µM (inactive).

Consider `CCSC1=C(C#N)C(c2ccccc2Cl)C(C(=O)c2cccs2)C(O)(C(F)(F)F)N1` (stereo unspecified), for which the IC50 is 21.8 µM (inactive).

As for `Cc1cccc(NC(=O)[C@@H]2CCCN2S(=O)(=O)c2ccc(Cl)cc2)c1`, the IC50 was > 59.6 µM (inactive).

For the compound `COCCCNC(=O)CCC(=O)NNc1nc2ccccc2c2nc(-c3ccccc3)nn12`, the IC50 was > 59.6 µM (inactive).

For the compound `CCOC(=O)N1CCN(C(=O)CSc2ccc(-c3ccccc3)nn2)CC1`, the IC50 was > 59.6 µM (inactive).

Consider `CN(N=Cc1cc([N+](=O)[O-])ccc1O)c1ccccc1`, for which the IC50 is > 59.6 µM (inactive).

Regarding `CCOc1ccccc1C(=O)Nc1ccc2nc3n(c(=O)c2c1)CCCCC3`, the IC50 is > 59.6 µM (inactive).

Regarding `CCN(CC)c1ccc(NC(=O)Cn2c(C(C)NC(=O)c3ccccc3)nc3ccccc32)cc1` (stereo unspecified), the IC50 is > 59.6 µM (inactive).

On to `Cc1cc(Cl)ccc1OCCCC(=O)NCCN1C(=O)S/C(=C\c2cccnc2)C1=O`, for which the IC50 was 7.22 µM.

For the compound `COc1cccc(/C=C2/Oc3ccccc3N(CC(=O)NCC3CCCO3)C2=O)c1` (stereo unspecified), the IC50 is > 59.6 µM (inactive).

For `Fc1cccc(Nc2nc3ccccc3n3cnnc23)c1`, the IC50 is > 59.6 µM (inactive).

Turning to `O=C(CSc1ccc(-c2ccccc2)nn1)c1cccs1`, the IC50 was > 59.6 µM (inactive).

On to `CSc1cccc(NC(=O)C2CCCN2S(=O)(=O)c2ccc(Br)s2)c1` (stereo unspecified), for which the IC50 is 20.4 µM (inactive).

With `O=C(CN1C(=O)/C(=C\c2cccc(Br)c2)Oc2ccccc21)NCC1CCCO1` (stereo unspecified), the IC50 is > 59.6 µM (inactive).
